The term IC50 denotes the midpoint of a concentration-inhibition curve.

This note sets out measurements from ChEMBL document CHEMBL6087479, “Discovery of a Potent and Selective GSPT1 Molecular Glue Degrader for the Treatment of Castration-Resistant Prostate Cancer” (J Med Chem, 2025).

The test system of test [1] is CWR22R. In words: cells. Particulars: Homo sapiens, 22Rv1, 96 h.
Description: Antiproliferative activity against human 22Rv1 cells assessed as inhibition of cell proliferation incubated for 96 hrs by CellTiter-Glo assay
In test [2] the test system is LNCaP C4-2B. Nature of the test: cells. Particulars: Homo sapiens, 96 h.
Description: Antiproliferative activity against human LNCaP C4-2B cells assessed as inhibition of cell proliferation incubated for 96 hrs by CellTiter-Glo assay
In test [3] the test system is LNCaP. In words: cells. Particulars: Homo sapiens, 96 h.
Description: Antiproliferative activity against human LNCaP cells assessed as inhibition of cell proliferation incubated for 96 hrs by CellTiter-Glo assay
The subject of test [4] is CWR22R. Nature of the test: Antiproliferative activity against human 22Rv1 cells assessed as inhibition of cell proliferation by CellTiter-Glo assay. On the technique in general: ATP-based viability assays read luminescence as a measure of living cells.
Test [5] concerns the target Protein cereblon/Eukaryotic peptide chain release factor GTP-binding subunit ERF3A (Homo sapiens) (UniProt Q96SW2+P15170). In words: Protac activity at CRBN/GSPT1 in human 22Rv1 cells assessed as GSPT1 degradation at 12 to 1000 nM incubated for 6 hrs by Western blotting analysis. Particulars: dose 12-1000 nM. In kind it is cell-based.
Test [6] addresses Protein cereblon/Bromodomain-containing protein 4 (Homo sapiens) (UniProt O60885+Q96SW2). Nature of the test: Molecular glue degradation activity at CRBN/BRD4 in human 22Rv1 cells at 12 to 1000 nM incubated for 6 hrs by Immunoblotting analysis. In kind it is cell-based. Particulars: dose 12-1000 nM. Background: In western blotting, separated proteins are transferred to a membrane and probed.

For test [7], the system named is CWR22R. Nature of the test: Downregulation of BRD2 protein level in human 22Rv1 cells at 500 nM incubated for 6 hrs by mass spectrometry-based label-free quantitative proteomics analysis. In kind it is functional, cell-based.
Test [8] relates to CWR22R. In words: Downregulation of GSPT1 protein level in human 22Rv1 cells at 500 nM incubated for 6 hrs by mass spectrometry-based label-free quantitative proteomics analysis. In kind it is functional, cell-based.

SMILES strings stand for the structures. Active and inactive are the calls of the source. No cut-off for these calls is given here.

Protein cereblon/Bromodomain-containing protein 4 (Homo sapiens), sequence (Q96SW2 whole entry, looked up, other chains not shown): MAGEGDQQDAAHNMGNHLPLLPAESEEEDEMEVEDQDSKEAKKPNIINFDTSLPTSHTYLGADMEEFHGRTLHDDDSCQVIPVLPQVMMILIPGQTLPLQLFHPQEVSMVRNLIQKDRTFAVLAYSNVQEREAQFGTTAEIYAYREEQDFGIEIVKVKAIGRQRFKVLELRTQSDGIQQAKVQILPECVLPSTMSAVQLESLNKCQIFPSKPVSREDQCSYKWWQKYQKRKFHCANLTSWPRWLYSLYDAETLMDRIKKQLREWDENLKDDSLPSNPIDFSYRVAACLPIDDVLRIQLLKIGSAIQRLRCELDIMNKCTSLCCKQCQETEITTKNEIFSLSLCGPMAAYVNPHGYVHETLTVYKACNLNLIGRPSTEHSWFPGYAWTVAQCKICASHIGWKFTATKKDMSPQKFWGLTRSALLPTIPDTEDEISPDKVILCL
Protein cereblon/Eukaryotic peptide chain release factor GTP-binding subunit ERF3A (Homo sapiens), sequence (P15170 whole entry, looked up): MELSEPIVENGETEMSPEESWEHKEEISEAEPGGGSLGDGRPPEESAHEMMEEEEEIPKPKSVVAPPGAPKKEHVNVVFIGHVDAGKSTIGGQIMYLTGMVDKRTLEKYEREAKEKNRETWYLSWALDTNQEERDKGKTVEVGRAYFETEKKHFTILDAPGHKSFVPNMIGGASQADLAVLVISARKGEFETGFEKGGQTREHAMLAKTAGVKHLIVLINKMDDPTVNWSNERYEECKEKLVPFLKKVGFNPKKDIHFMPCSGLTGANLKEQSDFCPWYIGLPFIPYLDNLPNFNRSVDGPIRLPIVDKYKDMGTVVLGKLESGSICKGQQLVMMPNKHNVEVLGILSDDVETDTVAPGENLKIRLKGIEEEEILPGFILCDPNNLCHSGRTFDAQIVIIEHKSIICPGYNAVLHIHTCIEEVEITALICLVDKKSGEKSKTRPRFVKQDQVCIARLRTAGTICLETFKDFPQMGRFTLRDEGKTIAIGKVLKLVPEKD
Protein cereblon/Eukaryotic peptide chain release factor GTP-binding subunit ERF3A (Homo sapiens), sequence (Q96SW2 whole entry, looked up): as the sequence (Q96SW2 whole entry, looked up, other chains not shown) above

As for `COc1ccc(Br)cc1S(=O)(=O)Nc1cc2c(C)noc2cc1OCC(=O)NCCCNc1ccc2c(c1)C(=O)N(C1CCC(=O)NC1=O)C2=O` (stereo unspecified), the 50% inhibitory concentration (IC50) is 1.38 µM in test [1], above 10 µM in test [2] and above 10 µM in test [3].

On to `O=C1CCC(N2Cc3cc(CNC(=O)C(F)(F)c4ccc(Cl)cc4)ccc3C2=O)C(=O)N1` (stereo unspecified), for which, in test [4], the IC50 turned out to be 0.016 µM.

Take `COc1ccc(Br)cc1S(=O)(=O)Nc1cc2c(C)noc2cc1OCC(=O)NCCCCNc1cccc2c1C(=O)N(C1CCC(=O)NC1=O)C2=O` (stereo unspecified): the Activity result in test [5] is reported as “Active; Moderate Effect Of Degradation Observed”. In addition, the IC50 in test [1] turned out to be 0.062 µM; in test [2], 1.43 µM; in test [3] it was 0.112 µM. Moreover, the result in test [6] was inactive.

For `Cc1sc2c(c1C)C(c1ccc(Cl)cc1)=N[C@@H](CC(=O)NCCCCNC(=O)COc1cccc3c1C(=O)N(C1CCC(=O)NC1=O)C3=O)c1nnc(C)n1-2` (stereo partly specified), the result in test [7] and in test [6] was Active. Also, the outcome in test [8] was inactive. For the same compound, the IC50 is 1.75 µM in test [1], 3.11 µM in test [2] and 2.25 µM in test [3].

As to `COc1ccc(Br)cc1S(=O)(=O)Nc1cc2c(C)noc2cc1OCC(=O)NCCNc1ccc2c(c1)C(=O)N(C1CCC(=O)NC1=O)C2=O` (stereo unspecified), the IC50 in test [1], in test [2] and in test [3] was above 10 µM in each case.

`COc1ccc(Br)cc1S(=O)(=O)Nc1cc2c(C)noc2cc1OCC(=O)NCCCCCNC(=O)COc1cccc2c1C(=O)N(C1CCC(=O)NC1=O)C2=O` (stereo unspecified): the IC50 in test [1], in test [2] and in test [3] was above 10 µM in each case.

Turning to `COc1ccc(Br)cc1S(=O)(=O)Nc1cc2c(C)noc2cc1OCC(=O)NCCCCCNc1ccc2c(c1)C(=O)N(C1CCC(=O)NC1=O)C2=O` (stereo unspecified), the IC50 in test [1], in test [2] and in test [3] was above 10 µM throughout.

As for `COc1ccc(Br)cc1S(=O)(=O)Nc1cc2c(C)noc2cc1OCC(=O)NCCCCCCNC(=O)COc1cccc2c1C(=O)N(C1CCC(=O)NC1=O)C2=O` (stereo unspecified), the IC50 in test [1], in test [2] and in test [3] was above 10 µM in each case.

In the case of `COc1ccc(Br)cc1S(=O)(=O)Nc1cc2c(C)noc2cc1OCC(=O)NCCNC(=O)COc1cccc2c1C(=O)N(C1CCC(=O)NC1=O)C2=O` (stereo unspecified), the IC50 in test [1], in test [2] and in test [3] was above 10 µM in each case.

Regarding `COc1ccc(Br)cc1S(=O)(=O)Nc1cc2c(C)noc2cc1OCC(=O)NCCCCCCNc1ccc2c(c1)C(=O)N(C1CCC(=O)NC1=O)C2=O` (stereo unspecified), the IC50 in test [1], in test [2] and in test [3] was above 10 µM each time.

Regarding `COc1ccc(Br)cc1S(=O)(=O)Nc1cc2c(C)noc2cc1OCC(=O)NCCCCNC(=O)COc1cccc2c1C(=O)N(C1CCC(=O)NC1=O)C2=O` (stereo unspecified), the IC50 in test [1], in test [2] and in test [3] was above 10 µM in each case.

With `COc1ccc(Br)cc1S(=O)(=O)Nc1cc2c(C)noc2cc1OCC(=O)NCCCCCCNc1cccc2c1C(=O)N(C1CCC(=O)NC1=O)C2=O` (stereo unspecified), in test [5], the Activity result is reported as “Active; Moderate Effect Of Degradation Observed”. In addition, the IC50 in test [1] was 0.909 µM; in test [2], above 10 µM; in test [3], 2.48 µM. Moreover, the result in test [6] was inactive.

For `COc1cc2onc(C)c2cc1NS(=O)(=O)c1cc(Br)ccc1OC`, the results for the IC50 in test [1], in test [2] and in test [3] were 1.61 µM, 1.8 µM and 2.52 µM, respectively.

With `COc1ccc(Br)cc1S(=O)(=O)Nc1cc2c(C)noc2cc1OCC(=O)NCCCNc1cccc2c1C(=O)N(C1CCC(=O)NC1=O)C2=O` (stereo unspecified), in test [5], the Activity entry was “Active; Moderate Effect Of Degradation Observed”. The IC50 in test [1] amounted to 0.026 µM; in test [2], 0.624 µM; in test [3] it was 0.1 µM. For the same compound, in test [6], the result was inactive.

Consider `COc1ccc(Br)cc1S(=O)(=O)Nc1cc2c(C)noc2cc1OCC(=O)NCCCCNc1ccc2c(c1)C(=O)N(C1CCC(=O)NC1=O)C2=O` (stereo unspecified), for which the IC50 in test [1], in test [2] and in test [3] was above 10 µM throughout.

For `COc1ccc(Br)cc1S(=O)(=O)Nc1cc2c(C)noc2cc1OCC(=O)NCCCNC(=O)COc1cccc2c1C(=O)N(C1CCC(=O)NC1=O)C2=O` (stereo unspecified), the IC50 in test [1], in test [2] and in test [3] was above 10 µM each time.

On to `COc1ccc(Br)cc1S(=O)(=O)Nc1cc2c(C)noc2cc1OCC(=O)NCCNc1cccc2c1C(=O)N(C1CCC(=O)NC1=O)C2=O` (stereo unspecified), for which the IC50 in test [1], in test [2] and in test [3] was above 10 µM in each case.

For `Nc1cccc2c1C(=O)N(C1CCC(=O)NC1=O)C2=O` (stereo unspecified) [POMALIDOMIDE], the IC50 in test [1], in test [2] and in test [3] was above 10 µM in each case.
